The values that follow come from US11225480B2, “Malic enzyme inhibitors” (SUN PHARMA ADVANCED RESEARCH COMPANY LTD, priority 2019, dated 2022).

Each structure is given as a SMILES string. Where a name gives a salt, the structure may show the parent alone.

Common to all, as to assay type: biochemical
Experiment [1] addresses T1, human ME3 enzyme (Homo sapiens, UniProt Q16798).
T1 sequence (Q16798 1-604): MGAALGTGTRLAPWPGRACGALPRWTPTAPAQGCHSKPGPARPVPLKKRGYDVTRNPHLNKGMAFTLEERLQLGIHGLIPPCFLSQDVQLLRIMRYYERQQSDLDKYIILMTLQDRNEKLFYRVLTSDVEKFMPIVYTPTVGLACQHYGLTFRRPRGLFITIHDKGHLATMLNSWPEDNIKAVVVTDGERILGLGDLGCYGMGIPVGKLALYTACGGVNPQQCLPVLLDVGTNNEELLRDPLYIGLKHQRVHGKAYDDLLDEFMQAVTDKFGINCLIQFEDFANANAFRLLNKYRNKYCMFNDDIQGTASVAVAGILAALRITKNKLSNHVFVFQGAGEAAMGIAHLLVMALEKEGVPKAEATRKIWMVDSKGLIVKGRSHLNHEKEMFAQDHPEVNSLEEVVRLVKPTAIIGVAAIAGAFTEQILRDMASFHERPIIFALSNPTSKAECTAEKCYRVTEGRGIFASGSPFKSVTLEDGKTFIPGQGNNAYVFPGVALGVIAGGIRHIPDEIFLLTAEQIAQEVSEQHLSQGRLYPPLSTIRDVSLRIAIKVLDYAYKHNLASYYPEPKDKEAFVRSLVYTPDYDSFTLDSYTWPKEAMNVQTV
Put plainly: ME3 inhibition assay (diaphorase/resazurin coupled fluorescence). The note with it: 10 μM compound concentration; read-out: Malic Enzyme 3 % inhibition (10 μM). In short, it runs like this: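 Coupled read-out: NADPH made by human ME3 (20 nM stock) drives diaphorase conversion of resazurin (50 μM) to resorufin; buffer 50 mM Tris-HCl pH 7.5, 10 mM MnCl2, 3 mM L-malate.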

Experiment [2] addresses T2, human ME1 enzyme (Homo sapiens, UniProt P48163).
T2 sequence (P48163 1-572): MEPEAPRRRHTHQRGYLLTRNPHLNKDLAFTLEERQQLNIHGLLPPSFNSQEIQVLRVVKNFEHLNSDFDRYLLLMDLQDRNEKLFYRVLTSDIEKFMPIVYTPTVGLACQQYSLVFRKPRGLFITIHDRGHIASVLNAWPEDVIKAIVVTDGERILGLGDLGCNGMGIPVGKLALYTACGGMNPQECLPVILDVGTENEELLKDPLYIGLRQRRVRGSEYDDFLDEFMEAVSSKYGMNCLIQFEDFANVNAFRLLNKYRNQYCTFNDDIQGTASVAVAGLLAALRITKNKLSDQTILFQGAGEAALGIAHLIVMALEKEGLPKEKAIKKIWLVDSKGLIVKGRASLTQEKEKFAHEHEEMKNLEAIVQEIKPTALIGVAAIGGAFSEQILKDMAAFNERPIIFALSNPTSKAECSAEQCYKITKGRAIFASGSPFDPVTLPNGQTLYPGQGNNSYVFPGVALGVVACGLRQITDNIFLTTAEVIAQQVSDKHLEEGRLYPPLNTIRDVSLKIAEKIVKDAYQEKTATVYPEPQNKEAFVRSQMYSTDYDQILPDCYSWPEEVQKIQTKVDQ
Put plainly: ME1 inhibition assay (diaphorase/resazurin coupled fluorescence). The note with it: 10 μM compound concentration; read-out: Malic Enzyme 1 % inhibition (10 μM). The gist of the method: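 Compounds at 10 μM preincubated 15 min in 50 mM Tris-HCl pH 7.5, 10 mM MnCl2, 2 mM L-malate, 10 μM resazurin, 0.01 mg/ml diaphorase, then human ME1 added for 5 min; reaction started with NADP+ and run 2 h at room temperature. Resorufin fluorescence (ex 540/em 600 nm) normalized to enzyme-only (100%) and no-enzyme (0%) controls.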
A general note: Alamar Blue is a resazurin reagent that responds to reducing activity.

Experiment [3] addresses human ME2 enzyme (Homo sapiens, UniProt P23368). Put plainly: ME2 inhibition assay (diaphorase/resazurin coupled fluorescence). The note with it: 10 μM compound concentration; read-out: Malic Enzyme 2 % inhibition (10 μM). In short, it runs like this: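 Human ME2 (10 μL of 60 nM) was preincubated 5 min at room temperature with compound (10 μM) in 50 mM Tris-HCl pH 7.5, 10 mM MnCl2, 7 mM L-malate, 50 μM resazurin and 0.025 mg/ml diaphorase. The reaction was started with 10 μL of 2 mM β-NAD+ and run 2 hours at room temperature. Resorufin fluorescence (ex 540/em 600 nm) was normalized to enzyme-only (100%) and no-enzyme (0%) controls as % activity.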

human ME2 enzyme, sequence (P23368 19-584): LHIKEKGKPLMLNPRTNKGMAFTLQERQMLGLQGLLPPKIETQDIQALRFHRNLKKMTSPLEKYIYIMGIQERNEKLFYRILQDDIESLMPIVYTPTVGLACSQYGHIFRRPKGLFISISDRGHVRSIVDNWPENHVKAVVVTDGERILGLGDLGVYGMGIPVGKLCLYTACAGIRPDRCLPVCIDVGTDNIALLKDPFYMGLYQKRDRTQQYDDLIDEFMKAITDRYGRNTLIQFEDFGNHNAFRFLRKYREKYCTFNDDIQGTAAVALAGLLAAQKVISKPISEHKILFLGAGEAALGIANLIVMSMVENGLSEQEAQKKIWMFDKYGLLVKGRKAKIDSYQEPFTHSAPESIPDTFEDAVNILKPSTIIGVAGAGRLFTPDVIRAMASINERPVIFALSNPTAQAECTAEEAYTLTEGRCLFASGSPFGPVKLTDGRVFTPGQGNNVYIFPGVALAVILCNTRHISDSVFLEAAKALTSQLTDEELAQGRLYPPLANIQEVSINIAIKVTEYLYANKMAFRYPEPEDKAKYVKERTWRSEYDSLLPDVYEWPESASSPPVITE

For orientation: inhibition means the drop in the measured response relative to a control, in per cent. For `O=C(c1c2ccccc2cc2ccccc12)N1CCN(c2ccc(O)cc2)CC1` [I.21, Anthracen-9-yl-[4-(4-hydroxy-phenyl)-piperazin-1-yl]-methanone], the inhibition at 10 µM in experiment [1], in experiment [2] and in experiment [3] was greater than 90% in each case.
For `Cc1cc(N2CCN(C(=O)Cc3ccccc3)CC2)ccc1O` [I.52, 1-[4-(4-Hydroxy-3-methyl-phenyl)-piperazin-1-yl]-2-phenyl-ethanone], the inhibition at 10 µM in experiment [1], in experiment [2] and in experiment [3] was greater than 90% each time.
Consider `O=C(CCCCc1ccccc1)N1CCN(c2ccc(O)cn2)CC1` [I.68, 1-[4-(5-Hydroxy-pyridin-2-yl)-piperazin-1-yl]-5-phenylpentan-1-one hydrochloride], for which the inhibition at 10 µM was greater than 90% in experiment [1], greater than 90% in experiment [2] and 70 to 89% in experiment [3].
Consider `Cc1cccc(C)c1CCC(=O)N1CCN(c2ccc(O)cn2)CC1` [I.147, 3-(2,6-Dimethyl-phenyl)-1-[4-(5-hydroxy-pyridin-2-yl)-piperazin-1-yl]-propan-1-one], for which the inhibition at 10 µM in experiment [1], in experiment [2] and in experiment [3] was greater than 90% in each case.
As for `O=C(c1ccc(-c2ccccc2)s1)N1CCN(c2ccc(O)cn2)CC1` [I.123, [4-(5-Hydroxy-pyridin-2-yl)-piperazin-1-yl]-(5-phenyl-thiophen-2-yl)-methanone], the results for the inhibition at 10 µM in experiment [1], in experiment [2] and in experiment [3] were greater than 90%, 70 to 89% and 70 to 89%, respectively.
As for `Cc1cccc(CCC(=O)N2CCN(c3ccc(O)cn3)CC2)c1C` [I.146, 3-(2,3-Dimethyl-phenyl)-1-[4-(5-hydroxy-pyridin-2-yl)-piperazin-1-yl]-propan-1-one], the inhibition at 10 µM in experiment [1], in experiment [2] and in experiment [3] was greater than 90% throughout.
With `O=C(COc1ccc(F)cc1)N1CCN(c2ccc(O)cn2)CC1` [I.164, 2-(4-Fluoro-phenoxy)-1-[4-(5-hydroxy-pyridin-2-yl)-piperazin-1-yl]-ethanone], the inhibition at 10 µM in experiment [1], in experiment [2] and in experiment [3] was greater than 90% throughout.
Consider `Cc1ccccc1CCC(=O)N1CCN(c2ccc(O)cn2)CC1` [I.107, 1-[4-(5-Hydroxy-pyridin-2-yl)-piperazin-1-yl]-3-o-tolyl-propan-1-one], for which the inhibition at 10 µM in experiment [1], in experiment [2] and in experiment [3] was greater than 90% in each case.
With `Cc1[nH]c2ccc(Cl)cc2c1CC(=O)N1CCN(c2ccc(O)cn2)CC1` [I.175, 2-(5-Chloro-2-methyl-1H-indol-3-yl)-1-[4-(5-hydroxy-pyridin-2-yl)-piperazin-1-yl]-ethanone], the inhibition at 10 µM in experiment [1], in experiment [2] and in experiment [3] was greater than 90% in each case.
For `O=C(O)c1cccc(-c2cc(C(=O)N3CCN(c4ccc(O)cc4)CC3)ccn2)c1` [I.39, 3-[4-[4-(4-Hydroxy-phenyl)-piperazine-1-carbonyl]-2-pyridyl]-benzoic acid], the inhibition at 10 µM in experiment [1], in experiment [2] and in experiment [3] was greater than 90% each time.
As for `O=C(CCc1ccncc1)N1CCN(c2ccc(O)cn2)CC1` [I.66, 1-[4-(5-Hydroxy-pyridin-2-yl)-piperazin-1-yl]-3-pyridin-4-yl-propan-1-one], the results for the inhibition at 10 µM in experiment [1], in experiment [2] and in experiment [3] were greater than 90%, 70 to 89% and 70 to 89%, respectively.
In the case of `O=C(CSc1ccccc1Br)N1CCN(c2ccc(O)cn2)CC1` [I.143, 2-(2-Bromo-phenylsulfanyl)-1-[4-(5-hydroxy-pyridin-2-yl)-piperazin-1-yl]-ethanone], the inhibition at 10 µM in experiment [1], in experiment [2] and in experiment [3] was greater than 90% each time.
Regarding `O=C(O)c1cccc(-c2cc(C(=O)N3CCN(c4ccc(O)cc4)CC3)cc(N3CCOCC3)n2)c1` [I.41, 3-[4-[4-(4-Hydroxy-phenyl)-piperazine-1-carbonyl]-6-morpholino-2-pyridyl]-benzoic acid], the inhibition at 10 µM in experiment [1], in experiment [2] and in experiment [3] was greater than 90% in each case.
Regarding `N#Cc1ccc(CCC(=O)N2CCN(c3ccc(O)cn3)CC2)cc1` [I.138, 3-(4-Cyano-phenyl)-1-[4-(5-hydroxy-pyridin-2-yl)-piperazin-1-yl]-propan-1-one], the inhibition at 10 µM in experiment [1], in experiment [2] and in experiment [3] was greater than 90% in each case.
For the compound `O=C(Cc1ccc(F)cc1F)N1CCN(c2ccc(O)cc2)CC1` [I.149, 2-(2,4-difluoro-phenyl)-1-[4-(4-hydroxy-phenyl)-piperazin-1-yl]-ethanone], the inhibition at 10 µM in experiment [1], in experiment [2] and in experiment [3] was greater than 90% in each case.
As to `Cc1cccc(Cl)c1C(=O)N1CCN(c2ccc(O)cc2)CC1` [I.154, (2-Chloro-6-methylphenyl)-[4-(4-hydroxy-phenyl)-piperazin-1-yl]-methanone], the inhibition at 10 µM in experiment [1], in experiment [2] and in experiment [3] was greater than 90% each time.
`O=C(CCc1cccc2ccccc12)N1CCN(c2ccc(O)cc2)CC1` [I.46, 1-[4-(4-Hydroxy-phenyl)-piperazin-1-yl]-3-naphthalen-1-yl-propan-1-one]: the inhibition at 10 µM in experiment [1], in experiment [2] and in experiment [3] was greater than 90% each time.
On to `CC(C)(C(=O)N1CCN(c2ccc(O)cn2)CC1)c1c[nH]c2ccc(F)cc12` [I.169, 2-(5-Fluoro-1H-indol-3-yl)-1-[4-(5-hydroxy-pyridin-2-yl)-piperazin-1-yl]-2-methyl-propan-1-one], for which the inhibition at 10 µM in experiment [1], in experiment [2] and in experiment [3] was greater than 90% each time.
In the case of `O=C(Cc1c[nH]c2c(F)cc(F)cc12)N1CCN(c2ccc(O)cn2)CC1` [I.167, 2-(5,7-Difluoro-1H-indol-3-yl)-1-[4-(5-hydroxy-pyridin-2-yl)-piperazin-1-yl]-ethanone], the inhibition at 10 µM in experiment [1], in experiment [2] and in experiment [3] was greater than 90% each time.
On to `O=C(c1c[nH]c2ccccc12)N1CCN(c2ccc(O)cc2)CC1` [I.2], for which the inhibition at 10 µM in experiment [1], in experiment [2] and in experiment [3] was greater than 90% in each case.
Regarding `O=C(CNC12CC3CC(CC(C3)C1)C2)N1CCN(c2ccc(O)cn2)CC1` [I.83, 2-(1-Adamantyl-amino)-1-[4-(5-hydroxy-2-pyridyl)-piperazin-1-yl]ethanone], the inhibition at 10 µM in experiment [1] was greater than 90%; in experiment [2], 50 to 69%; in experiment [3] it was 50 to 69%.
As to `O=C(Cc1c[nH]c2ccc(Cl)cc12)N1CCN(c2ccc(O)cn2)CC1` [I.159, 2-(5-Chloro-1H-indol-3-yl)-1-[4-(5-hydroxy-pyridin-2-yl)-piperazin-1-yl]-ethanone], the inhibition at 10 µM in experiment [1], in experiment [2] and in experiment [3] was greater than 90% each time.
